According to patent US20200270588A1, “GLUCOSYL TRANSFERASE POLYPEPTIDES AND METHODS OF USE” (Syngenta Participations AG, priority 2017, published 2020):
Values joined by “and” are separate entries in the source; they are usually repeats but may differ in a detail not shown here. Identical values can stand only once.

Experiments:
Assay type in all cases: biochemical
[1] = target: T1, Zea mays bx9 glucosyl transferase (C-terminally his tagged SEQ ID NO: 1) (Zea mays, UniProt B4G072); assay: UDP-Glo glucosyl transferase assay, purified enzyme
T1 construct: His tag (C); made in house; host or cells: E. coli BL21 (DE3), pET24a
T1 sequence (B4G072 1-462): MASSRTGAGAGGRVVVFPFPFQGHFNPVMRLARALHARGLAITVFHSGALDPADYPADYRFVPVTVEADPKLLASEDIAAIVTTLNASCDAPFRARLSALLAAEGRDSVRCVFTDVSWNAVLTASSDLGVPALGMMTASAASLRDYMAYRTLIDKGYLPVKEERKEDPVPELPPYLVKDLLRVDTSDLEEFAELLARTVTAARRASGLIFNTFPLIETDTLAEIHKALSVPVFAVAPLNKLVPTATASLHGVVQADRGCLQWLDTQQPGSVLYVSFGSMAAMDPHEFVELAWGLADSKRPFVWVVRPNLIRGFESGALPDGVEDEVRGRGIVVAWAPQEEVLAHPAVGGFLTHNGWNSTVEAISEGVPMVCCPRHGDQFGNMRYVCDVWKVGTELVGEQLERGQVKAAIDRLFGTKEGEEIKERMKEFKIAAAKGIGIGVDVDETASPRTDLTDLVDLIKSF

[2] = system: wheat bx glucosyl transferase (SEQ ID NO 4); assay: as above; conditions: for Activity: herbicide 0.500 mM, limit of detection about 0.001
Protocol: (§1) Glucosyl transferase activity is assayed via measurement of acceptor substrate-dependent production of UDP from ultrapure UDP-glucose using the Promega UDP-Glo™ method and according to the manufacturer's instructions. Assays are run in 96 well microtiter plates.
(§2) Enzyme, typically at a stock concentration of ˜2 mg/ml is diluted to an appropriate concentration in 50 mM K^+ Hepes buffer at pH7.5 containing 0.5 mg/mL bovine serum albumin (BSA) and 5 ul aliquots of this diluted enzyme added to each well of a Perkin Elmer white ½ area 96 well plate. […] Assays are run for an appropriate time (usually 10 to 60 min) so that the amount of UDP formed lies within the most nearly linear part of the UDP standard curve and are stopped with the addition and mixing of 25 ul UDP-Glo™ detection reagent (prepared as described below). Plates are then incubated at room temperature for 60 minutes and then read in a luminescence plate reader (Perkin Elmer Envision 2130 Multilabel Reader). A UDP standard curve is run alongside each set of assays and reagent blank control assays run with DMSO in place of test herbicide. Typically, 300 pmol of UDP corresponds to a Relative Luminescence Unit (RLU) reading of about 1.5E7 and the response curve between 0 and 600 pmol is fitted to a polynomial function (see for example FIG. 2).
(§3) The UDP-Glo™ reagents are made up and used according to the manufacturer's instructions. Thus, Nucleotide Detection Buffer and ATP are combined to make nucleotide detection reagent (NDR) dispensed into aliquots and frozen to be freshly thawed before use.
(§4) Km and kcat values in respect of UDP-glucose are derived by carrying out experiments to measure initial rates over a suitable range of concentrations of UDP glucose out at a fixed near saturating concentration of acceptor substrate. Best fit values of kcat, Km and kcat/Km are obtained by direct fitting of the data to the Michaelis-Menten equation using Graphpad Prism™ software.
(§5) DNA sequences, optimized for E. coli codon usage, corresponding to SEQ IDs 1-15, encoding BX8 and BX9 orthologue polypeptides derived from a range of species (as depicted in FIG. 1) were synthesized by Genewiz (South Plainfield, USA) with 5′ NdeI and 3′ XhoI restriction sites. The various orthologues were synthesized with either a N-terminal 6×His purification tag or C-terminal 6×His purification tag (i.e. tried both ways to achieve best expression of activity) and cloned into the E. coli expression plasmid pET24a (Novagen) via the NdeI and XhoI restriction sites. Expression, purification and assay was as described in Example 1.
(§6) Assays were carried out as described in Example 1. Partly purified C-terminally his tagged w/t Larkspur enzyme (SEQ ID No 10 with a 6 amino acid C-terminal tag) catalyzed glucosyl transfer to herbicide V at a rate estimated to be about 0.0065/s/pmol at 1 mM herbicide V. The similarly-tagged w/t bx-like enzymes from rye (SEQ ID No 11) and from wheat (SEQ ID No 4) were also active but only at levels close to the detection limit at ˜0.0015/s/pmol. Further examples of assay results from further experiments are depicted in Table 14. All of the proteins were C-terminally his tagged versions of the sequences referenced except for the Zea mays bx8 SEQ ID NO: 2 which was N-terminally his tagged.

[3] = system: Avena bx glucosyl transferase (SEQ ID NO 8); assay: as above; conditions: herbicide 0.500 mM; limit of detection about 0.001
Protocol: as §1, §2, §3, §4, §5, §6

[4] = target: T2, SEQ ID 34, mutant bx-type glucosyl transferase (Zea mays, UniProt Q8W2B7, V367W); assay: LC/MS glucosyl transferase assay (glucoside peak area), purified enzyme; conditions: about 60 min, ~15 pmol enzyme, relative quantification only
T2 construct: 34; 2.45E+05; 2.17E+07; 5.21E+06; His tag; made in house
Protocol: (§7) In an alternative method for assaying the various enzymes, the test glucosyl transferase enzyme is reacted with substrates exactly as above except that the assay is stopped by adding an equal volume of acetonitrile. Alternatively 50 or 100 μl samples from assay reactions are added to 500 μl ethyl acetate to stop the reaction. In this case samples are then vortexed and 400 μl of the ethyl acetate partition removed, dried down, and resuspended in 100 μl 80:20 acetonitrile/water. The formation of product gluco side and/or disappearance of substrate test herbicide is then monitored directly by LC/MS. Samples are analyzed by LC-MS using an Agilent 1290 liquid chromatography system and Thermo Q-Exactive mass spectrometer. The chromatography is achieved on a Waters Acquity C18 BEH (50×2.1 mm) 1.7 μm particle size column, using a 6 minute gradient run of Water (0.2% formic acid) and Acetonitrile. The Q-Exactive is operated in positive ionisation electrospray mode, using Full scan-AIF mode, at 35,000 resolution, between 100-800 m/z. All analytes are identified from the full scan data to within at least 5 ppm accuracy of their predicted pseudo-molecular ion [M+H]^+ m/z value. In order to obtain quantitative data standard curves are run using herbicides and herbicide glucosides synthesized as standards. Where these synthetic glucosides were not available the LC/MS assay could only be used to provide relative data.
(§8) DNA sequences, optimized for E. coli codon usage, were cloned, expressed and the various proteins purified and assayed as described in the foregoing examples. Using the UDP assay (as described in examples 1, 3 and 6) the data obtained from the Zea mays bx8 w/t protein and its variants was noisy due to relatively high background rates in DMSO reagent blanks. The values reported in the table 15 were thus monitored by LC/MS as described in example 1.

[5] = target: T3, SEQ ID 32, mutant bx-type glucosyl transferase (Zea mays, UniProt Q8W2B7, M283F); assay: as above; conditions: about 60 min, ~15 pmol enzyme, relative quantification only
T3 construct: 32; 9.98E+05; 1.75E+08; 8.33E+06; His tag; made in house
Protocol: as §7, §8

[6] = 0.5 mM UDP-glucose, 25 C, pH 7.5, DMSO reagent blank as control
[7] = control = inactive H24A mutant of bx9 (asterisk)
[8] = herbicide 0.500 mM, limit of detection about 0.001
[9] = herbicide mM: V 0.300, VI 0.250, VII 0.210, IV, VIII, XI, XXI, XX, XVIII, XVI, XV, XIV 0.200, others 1.000

SMILES	kcat [1, 6]	kcat [1, 7] [s⁻¹]	Activity [1, 8] [pmol/sec/pmol enzyme]	Activity [1, 9] [pmol/sec/pmol enzyme]	Activity [2] [pmol/sec/pmol enzyme]	rate of glucosyl transfer ([2]; herbicide V, close to the detection limit) [s⁻¹ pmol⁻¹]	Activity [3] [pmol/sec/pmol enzyme]	integrated peak area of beta-glucoside product [4]	integrated peak area of beta-glucoside product [5]
CN1CC(O)N(c2cc(C(F)(F)F)ccn2)C1=O (stereo not shown) [Compound V]	0.012 s⁻¹ and 0.021 s⁻¹	0.0181	0.005	0.005	0.001	~0.0015	0.002	5.21E+06 and 4.16E+06	8.33E+06 and 6.18E+06
Cc1cnc(N2C(=O)N(C)CC2O)cc1C(F)(F)F (stereo not shown) [XVIII]	0.0040 s⁻¹	–	0.002	0.001	0.000	–	0.003	–	–
CN1CC(O)N(c2cc(C(F)(F)F)c(Cl)cn2)C1=O (stereo not shown) [XI]	–	–	0.000	0.000	0.001	–	0.002	2.45E+05	9.98E+05 and 1.08E+06
CON1C(=O)N(c2cc(C(F)(F)F)ccn2)C(O)[C@@H]1C (stereo partly shown) [Compound VI]	0.037 s⁻¹ and 0.044 s⁻¹	0.0430	0.013	0.012	0.000	–	0.002	2.17E+07 and 2.00E+07	1.75E+08 and 1.89E+08
